Results reported in patent publication US11279733B2, “Peptide antibiotics” (priority 2017, dated 2022).
≈ marks a conversion by molar mass, not a printed value. Read-outs that look alike come from different tables or passages of the source. Positions of bridges follow the written chain, without caps; N, C: chain ends. Non-standard residues stand in square brackets, D forms with d. Residues, ends and D or L forms follow the SMILES beside them. *: point of attachment. Decanoyl(3R-OH) = CCCCCCC[C@@H](O)CC(=O)*; dDab = NCC[C@@H](N)C(=O)O; Dab = NCC[C@H](N)C(=O)O; Dap = NC[C@H](N)C(=O)O

Legend:
A. baumannii ATCC 19606 = conditions: ATCC 19606
Procedure: (§1) Bacteria were either obtained from American Type Culture Collection (ATCC; Manassas, Va., USA) or independent academic clinical isolate collections, as listed in Table 18 below. Bacteria were cultured in Nutrient broth (NB; Bacto Laboratories, catalogue No. 234000) or Mueller Hinton broth (MHB; Bacto Laboratories, catalogue No. 211443) at 37° C. overnight with shaking (˜180 RPM). A sample of each culture was then diluted 50-fold in fresh MHB and incubated at 37° C. for 2-3 h with shaking (˜180 RPM). Compound stock solutions were prepared as 0.64 mg/mL or 2.56 mg/mL in water. The compounds, at twice the final desired concentration, were serially diluted 2-fold across the wells of 96-well plates (Polystyrene, Corning, catalogue No. 3370). Mid-log phase bacterial cultures (after 2-3 h incubation) were diluted to a final concentration of 1×10^6 colony forming units (CFU)/mL, and 50 μL was added to each well giving a final cell density of 5×10^5 and a compound concentration range of 32 μg/mL to 0.015 μg/mL (128-0.06 μg/mL against P. aeruginosa PA9704).

[1] = system: S. aureus ATCC 25923, MSSA; conditions: ATCC 25923
Procedure: as §1

A. baumannii GN_093 PmxR = conditions: GN 093 PmxR
Procedure: as §1

[2] = system: P. aeruginosa GN_043, PmxR
Procedure: as §1

E. coli ATCC 25922 = conditions: ATCC 25922
Procedure: as §1

[3] = system: K. pneumoniae ATCC 700603, MDR; conditions: ATCC 700603
Procedure: as §1

K. pneumoniae ATCC 13883 = conditions: ATCC 13883
Procedure: as §1

[4] = system: K. pneumoniae GN_106, PmxR; conditions: GN 106, PmxR
Procedure: as §1

[5] = system: K. pneumoniae GN_102 PmxR; conditions: GN 102 PmxR
Procedure: as §1

P. aeruginosa ATCC 27853 = conditions: ATCC 27853
Procedure: as §1

[6] = system: P. aeruginosa GN_105, PmxR; conditions: GN 105, PmxR
Procedure: as §1

[7] = system: K. pneumoniae ATCC BAA-2146, NDM-1 pos; conditions: ATCC BAA-2146
Procedure: as §1

Structure (SMILES)	MIC A. baumannii ATCC 19606 (A. baumannii ATCC 19606) [µg/mL]	MIC, A. baumannii ATCC 19606 (A. baumannii ATCC 19606) [µg/mL]	MIC S. aureus ATCC 25923, MSSA [1] [µg/mL]	MIC, S. Aureus ATCC 25923, MSSA [1] [µg/mL]	MIC A. baumannii GN_093 PmxR (A. baumannii GN_093 PmxR) [µg/mL]	MIC, A. baumannii Cl Ptyela 10073 4512:2, PmxR (A. baumannii GN_093 PmxR) [µg/mL]	MIC P. aeruginosa GN_043, PmxR ([2]; P. aeruginosa GN_043, PmxR) [µg/mL]	MIC, P. aeruginosa FADDI-PA070, PmxR ([2]; Table 5, polymyxin-resistant) [µg/mL]	MIC P. aeruginosa GN_043, PmxR ([2]; polymyxin-resistant) [µg/mL]	MIC E. coli ATCC 25922 (E. coli ATCC 25922) [µg/mL]	MIC, E. coli ATCC 25922 (E. coli ATCC 25922) [µg/mL]	MIC K. pneumoniae ATCC 700603, MDR [3] [µg/mL]	MIC, K. pneumoniae ATCC 700603, MDR [3] [µg/mL]	MIC K. pneumoniae ATCC 13883 (K. pneumoniae ATCC 13883) [µg/mL]	MIC, K. pneumoniae ATCC 13883 (K. pneumoniae ATCC 13883) [µg/mL]	MIC K. pneumoniae GN_106, PmxR [4] [µg/mL]	MIC K. pneumoniae GN_102 PmxR [5] [µg/mL]	MIC P. aeruginosa ATCC 27853 (P. aeruginosa ATCC 27853) [µg/mL]	MIC P. aeruginosa GN_105, PmxR [6] [µg/mL]	MIC K. pneumoniae ATCC BAA-2146, NDM-1 pos [7] [µg/mL]	further results
CCCCCCC[C@@H](O)CC(=O)N[C@H](CCN)C(=O)N[C@H]1CCNC(=O)[C@H](CC(C)C)NC(=O)[C@H](CCN)NC(=O)[C@H](CCN)NC(=O)[C@H](CC(C)C)NC(=O)[C@@H](Cc2ccccc2)NC(=O)[C@H](CCN)NC1=O [Octapeptin C4 (631), 3(R)OH-nC9CO-D-Dab-cyc[L-Dab-L-Dab-D-Phe-L-Leu-L-Dab-L-Dab-L-Leu], reference compound] ({Decanoyl(3R-OH)}-[dDab][Dab][Dab][dF]L[Dab][Dab]L; lactam 2-C)	4 (≈ 3.83 µM)	4 (≈ 3.83 µM)	16 (≈ 15.3 µM)	16 (≈ 15.3 µM)	4 (≈ 3.83 µM)	4 (≈ 3.83 µM)	2 (≈ 1.92 µM)	2 (≈ 1.92 µM)	2 (≈ 1.92 µM)	4 (≈ 3.83 µM)	4 (≈ 3.83 µM)	8 (≈ 7.66 µM)	8 (≈ 7.66 µM)	8 (≈ 7.66 µM)	8 (≈ 7.66 µM)	4 (≈ 3.83 µM)	2 (≈ 1.92 µM)	2 (≈ 1.92 µM)	2 (≈ 1.92 µM)	8 (≈ 7.66 µM)	MIC A. baumannii Cl Ptyela 10073 4512:2, PmxR (A. baumannii GN_093 PmxR): 4 µg/mL (≈ 3.83 µM); MIC P. aeruginosa GN_043, PmxR [2]: 2 µg/mL (≈ 1.92 µM); MIC, P. aeruginosa FADDI-PA070, PmxR ([2]; strain name as in Table 11): 2 µg/mL (≈ 1.92 µM); MIC K. pneumoniae Cl 183-16357-20352, PmxR [4]: 4 µg/mL (≈ 3.83 µM); MIC, K. pneumoniae Cl 138-16347-20362, PmxR [4]: 4 µg/mL (≈ 3.83 µM); MIC K. pneumoniae Cl Koprana 10065 0661:1 PmxR [5]: 2 µg/mL (≈ 1.92 µM); MIC, K. pneumoniae Cl Koprana 10065 0661:1, PmxR [5]: 2 µg/mL (≈ 1.92 µM); MIC, P. aeruginosa ATCC 27853 (P. aeruginosa ATCC 27853): 2 µg/mL (≈ 1.92 µM); MIC P. aeruginosa PA9704, PmxR [6]: 2 µg/mL (≈ 1.92 µM); MIC, P. aeruginosa PA9704, PmxR [6]: 2 µg/mL (≈ 1.92 µM); MIC, K. pneumoniae ATCC BAA-2146, NDM-1 pos [7]: 8 µg/mL (≈ 7.66 µM)
CCCCCCC[C@@H](O)CC(=O)N[C@H](CCN)C(=O)N[C@H]1CCNC(=O)[C@H](CC(C)C)NC(=O)[C@H](CCN)NC(=O)[C@H](CCN)NC(=O)[C@H](CC(C)C)NC(=O)[C@@H](Cc2ccccc2)NC(=O)[C@H](CN)NC1=O [compound 993, 3(R)OH-nC9CO-D-Dab-cyc[L-Dab-L-Dap-D-Phe-L-Leu-L-Dab-L-Dab-L-Leu]] ({Decanoyl(3R-OH)}-[dDab][Dab][Dap][dF]L[Dab][Dab]L; lactam 2-C)		8 (≈ 7.76 µM)		8 (≈ 7.76 µM)		16 (≈ 15.5 µM)		2 (≈ 1.94 µM)			2 (≈ 1.94 µM)		4 (≈ 3.88 µM)		4 (≈ 3.88 µM)						MIC, K. pneumoniae Cl 138-16347-20362, PmxR [4]: 2 µg/mL (≈ 1.94 µM); MIC, K. pneumoniae Cl Koprana 10065 0661:1, PmxR [5]: 2 µg/mL (≈ 1.94 µM); MIC, P. aeruginosa ATCC 27853 (P. aeruginosa ATCC 27853): 2 µg/mL (≈ 1.94 µM); MIC, P. aeruginosa PA9704, PmxR [6]: 2 µg/mL (≈ 1.94 µM); MIC, K. pneumoniae ATCC BAA-2146, NDM-1 pos [7]: 8 µg/mL (≈ 7.76 µM)
CCCCCCC[C@@H](O)CC(=O)N[C@H](CCN)C(=O)N[C@H]1CCNC(=O)[C@H](CC(C)C)NC(=O)[C@H](C)NC(=O)[C@H](CCN)NC(=O)[C@H](CC(C)C)NC(=O)[C@@H](Cc2ccccc2)NC(=O)[C@H](CCN)NC1=O [compound 4944, 3(R)OH-nC9CO-D-Dab-cyc[L-Dab-L-Dab-D-Phe-L-Leu-L-Dab-L-Ala-L-Leu]] ({Decanoyl(3R-OH)}-[dDab][Dab][Dab][dF]L[Dab]AL; lactam 2-C)	32 (≈ 31.5 µM)		>32		>32				4 (≈ 3.94 µM)	16 (≈ 15.8 µM)		16 (≈ 15.8 µM)		16 (≈ 15.8 µM)		32 (≈ 31.5 µM)	8 (≈ 7.88 µM)	8 (≈ 7.88 µM)	16 (≈ 15.8 µM)	8 (≈ 7.88 µM)	
CCCCCCC[C@@H](O)CC(=O)N[C@H](CCN)C(=O)N[C@H]1CCNC(=O)[C@H](CC(C)C)NC(=O)[C@H](CCN)NC(=O)[C@H](CCN)NC(=O)[C@H](Cc2ccccc2)NC(=O)[C@@H](Cc2ccccc2)NC(=O)[C@H](CCN)NC1=O [compound 5003, 3(R)OH-nC9CO-D-Dab-cyc[L-Dab-L-Dab-D-Phe-L-Phe-L-Dab-L-Dab-L-Leu]] ({Decanoyl(3R-OH)}-[dDab][Dab][Dab][dF]F[Dab][Dab]L; lactam 2-C)	16 (≈ 14.8 µM)		8 (≈ 7.42 µM)		8 (≈ 7.42 µM)		2 (≈ 1.85 µM)			8 (≈ 7.42 µM)		16 (≈ 14.8 µM)		4 (≈ 3.71 µM)		4 (≈ 3.71 µM)	4 (≈ 3.71 µM)	2 (≈ 1.85 µM)	2 (≈ 1.85 µM)	16 (≈ 14.8 µM)	
